{"source": "patent US20240103011A1", "about": "“LIQUID BIOPSY YIELD ENHANCEMENT” (priority 2021, published 2024)", "key": {"HSC": {"tested_on": "HSC", "settings": "in vivo; cited from earlier work"}, "T cell lymphoma": {"tested_on": "T cell lymphoma", "settings": "T cell lymphoma/Partial remission", "experimental": "(§1) A sample from the subjects is collected at the time of diagnosis (“baseline sample”) and analyzed for tumor mutational burden (TMB) and microsatellite instability (MSI). Subjects are then administered a single dose of plerixafor (10-20 mg), a single dose of motixafortide (0.5-2 mg/kg), a single dose of MGTA-145 (0.0075-0.3 mg/kg), or a single dose of MGTA-145 (0.0075-0.3 mg/kg) in combination with a single dose of plerixafor (0.24 mg/kg), and blood sample collected 1-72 hours later. This blood sample (“LBYE+ sample”) is analyzed for TMB and MSI.\n(§2) The change/difference of biomarker detected in the LBYE+ sample and the baseline sample is used by a clinician to predict treatment response and/or make treatment decision."}, "Colon Cancer": {"tested_on": "Colon Cancer", "settings": "Colon Cancer/Relapse", "experimental": "as §1, §2"}}, "note": "Like-named read-outs stand apart in the source and are kept apart here."}
{"smiles": "c1cc(CN2CCCNCCNCCCNCC2)ccc1CN1CCCNCCNCCCNCC1", "note": "[Plerixafor, 1-{[4-(1,4,8,11-tetrazacyclotetradec-1-ylmethyl)phenyl]methyl}-1,4,8,11-tetrazacyclotetradecane]", "values": [{"measurement": "HSC mobilization", "setting": "HSC", "value": "rapidly mobilize HSC within hours"}, {"measurement": "VAF, LBYE+ Sample Status", "setting": "T cell lymphoma; TET2, baseline 23.80%", "value": 20.20, "unit": "%"}, {"measurement": "Genomic variants, LBYE+ Sample Status", "setting": "T cell lymphoma; after intervening agent, baseline TET2", "value": "TET2"}, {"measurement": "TMB, LBYE+ Sample Status", "setting": "T cell lymphoma; baseline 0.4 m/MB", "value": 0.5, "unit": "m/MB"}, {"measurement": "MSI, LBYE+ Sample Status", "setting": "T cell lymphoma; baseline Stable", "value": "Stable"}, {"measurement": "VAF, LBYE+ Sample Status", "setting": "Colon Cancer; APC, baseline 7.80%", "value": 7.30, "unit": "%"}, {"measurement": "VAF, LBYE+ Sample Status", "setting": "Colon Cancer; TP53, baseline 6.30%", "value": 6.30, "unit": "%"}, {"measurement": "TMB, LBYE+ Sample Status", "setting": "Colon Cancer; baseline 0.5 m/MB", "value": 1.1, "unit": "m/MB"}, {"measurement": "MSI, LBYE+ Sample Status", "setting": "Colon Cancer; baseline Stable", "value": "Stable"}]}
